# Assay results taken from patent publication US20210205348A1, “Methods for the Treatment of Bladder Cancer” (Eisai R&D Management Co., Ltd., priority 2018, published 2021).
# What was measured:
# IFNβ = experiment: Ex vivo human PBMC stimulation assay, IFNβ protein; type: cell-based; conditions: 24 hours, average of five donors
# Description: Human blood from 5 healthy donors was collected using 10.0 mL BD Vacutainer Sodium heparin tubes (cat #367874). Peripheral blood mononuclear cell (PBMC) isolation was done using SIGMA ACCUSPIN 50 ml Tubes (cat #A2055) and sigma ACCUSPIN System-HISTOPAQUE-1077 (cat #A7054) using protocol provided by manufacturer. […] PBMC were counted and finally suspended @ 1x10e6/ml in RPMI (corning cat #10-041-CV supplemented with 10% fetal bovine serum (FBS) (Gibco cat #20140.79). 1ml of cell (1×10e6) were transferred into Falcon 5 mL Round Bottom Polypropylene Test Tube (cat #352063) and stimulated with different concentrations (0, 0.1, 1, 10 uM) for 24 hours in 5% CO2 incubator at 37° C.
# After 24 hours of incubation the tubes were centrifuged at 1400 rpm for 5 minutes and supernatants were harvested. Supernatant were stored in −80° C. for subsequent IFNβ measurement. IFNβ measurement was done using Human IFN-β Base Kit (Meso Scale Diagnostics cat #K151ADA) and protocol provided by manufacturer was used. IFN-beta estimation was done by reading assay plate at MESO SECTOR Imager 2400 and using MSD Discovery Workbench 4.0 program. After 24 hours IFNβ protein was analyzed.
# Results shown in Table 3 reflect an average of measurements conducted using five different donors.
# MBT-2 tumor cells = experiment: MBT-2 murine bladder cancer orthotopic model; type: in vivo, mouse
# Description: The protocol with HCl pre-treatment procedure described by Lee, et al. was applied to establish the model. In brief, 30 μL 0.1 N HCl solution was injected into mouse bladder through a catheter and HCl solution was allowed to remain in the bladder for 15 seconds. Then the HCl solution was replaced by 30 μL 0.1N NaOH solution followed by one flushing step with 1 X PBS (pH7.4). The follow-up tumor cell implantation procedure was modified from the original literature. In brief, after a flushing step, MBT-2 tumor cells (2 ×10^6 cells in 50 μL RPMI1640 medium) were instilled into the bladder and allowed to remain for 45 minutes. At the end of this 45 minute period, the bladder was drained.
# On each day of dosing BCG was diluted in NaCl 0.9% (Lavoisier, France) to reach the final concentration of 16.875 mg/mL for dosing. Any leftover dosing solution was discarded after use. For anti-PD-1 antibody, 1 x PBS (Lonza, France) was used to dilute the stock solution to prepare 1 mg/mL working solution for dosing.
# From days 20-21, tumor growth in bladder was quantitated by MRI (Magnetic resonance imaging) and tumor sizes of all mice were graphed as shown in FIG. 7.
# GL261 mouse glioma cells = experiment: GL261 brain orthotopic model; type: in vivo; conditions: 10 mg/kg intratumorally, a single time
# Source text: GL261 is a murine glioma cell line.
# [1] = test system: hepatocytes of Beagle dog; experiment: Hepatocyte incubation, identification of potential metabolites; type: in vitro ADME; conditions: 10 μmol/L
# Description: (§1) Prior to incubations, the cryopreserved hepatocytes were thawed in a water bath at 37° C. One tube of cryopreserved hepatocytes was added to each 50-mL conical tube of cryopreserved hepatocyte recovery medium (UCRM) obtained from In Vitro ADMET Laboratories (Columbia, Md.). The cells were spun in a Beckman centrifuge (Brea, Calif.) with a GH 3.8 rotor at 740 rpm for 10 minutes at […]. The supernatant was removed and the cells were re-suspended in plating media for counting. After the cells were re-suspended in plating media, 20 μL of the re-suspension was transferred and mixed with 20 μL of AOPI staining solution. The solution was gently mixed and cells were counted using a Cellometer (Nexcelom, Lawrence, Mass.). After counting, the cells were then re-suspended at 1 or 2 million viable cells/mL in Williams' E media containing 2 mmol/L L-glutamine (pH 7.4).
# (§2) The hepatocyte suspension (50 μL/well) was added into a 48-well plate. […] The plate was placed into a tissue culture incubator (5% CO2/95% air humidified atmosphere and 37° C.), and the reactions were terminated with 200 μL of stop solution consisting of 100% methanol/acetonitrile (1/1, v/v) with 2010 ng/mL furosemide and 0.2 μmol/L (R)-propranolol at 5, 30, 60, 120, 180 and 240 minutes. The mixture was centrifuged and filtered, and the supernatant was collected for analysis. The final concentrations of cryopreserved hepatocytes were 1×10^6 cells/mL.
# (§3) The LC-MS/MS system was composed of a Shimadzu HPLC and an AB-SCIEX TripleTOF 5600 hybrid quadrupole and TOF mass spectrometer (Framingham, Mass.). The Shimadzu HPLC (Kyoto, Japan), consisted of a communications bus module (CBM-20A), an auto-sampler (SIL-30AC) with an attached rack changer (Rack Changer II) two pumps (LC-30AD) and a column oven (CTO-30A). The mass spectrometer was calibrated using the AB-SCIEX APCI both Negative and Positive Calibration Solutions (Framingham, Mass.). The samples obtained from incubations with hepatocytes were analyzed under both negative and positive scan modes. The basic analytical method and instrumental conditions are summarized below. Modification of the spectrometer settings was dependent on the necessity of the analyte.
# (§4) Mass spectrometry data were acquired using AB-Sciex Analyst TF (Version 1.5.1; Framingham, Mass.). Chromatograms and spectra were obtained using AB-Sciex PeakView (Version 2.2.0.1; Framingham, Mass.). The comparison of relative peak areas for extracted ion chromatograms were based on ±0.0002 Da of the expected exact mass-to-charge ratio (m/z) for each analyte of interest.
# [2] = test system: hepatocytes of CD-1 mouse; experiment: as above; type: in vitro ADME; conditions: 10 μmol/L
# Description: as §1, §2, §3, §4
# [3] = test system: hepatocytes of Cynomoigus monkey; experiment: as above; type: in vitro ADME; conditions: 10 μmol/L
# Description: as §1, §2, §3, §4
# [4] = test system: hepatocytes of Sprague Dawley rat; experiment: as above; type: in vitro ADME; conditions: 10 μmol/L
# Description: as §1, §2, §3, §4
# hepatocytes of human = experiment: as above; type: in vitro ADME; conditions: 10 μmol/L
# Description: as §1, §2, §3, §4
# CT26 tumor cells [5] = experiment: CT26 liver metastatic model; conditions: 10 mg/kg intratumorally, a single time
# CT26 tumor cells [6] = experiment: CT26 dual tumor model (mouse colon cancer model)
# Description: For study B, treatment was started 8 days (0.6 mg/kg, and 10 mg/kg) after the tumor implantation, when the average tumors reached approximately 120 mm^3.
# All the mice in the study have two subcutaneous CT26 tumors. The “treated tumor” indicates the tumor with compound direct administration, while “untreated tumor” indicates the tumor without direct compound administration. Tumor volume was followed throughout the experiment. Tumor volume is measured two times weekly after the start of treatment. Tumor burden is calculated from caliper measurements by the formula for the volume of a prolate ellipsoid (L×W^2)/2 where L and W are the respective orthogonal length and width measurements (mm),
structure (smiles),measurement,setting,value
O=P1(S)OCC2OC3C(F)C2OP(=O)(S)OCC2OC(C(F)C2O1)n1cnc2c(ncnc21)NCC=CCNc1ncnc2c1ncn23 (centres unmarked) [Compound 1a],IFNβ,IFNβ; 0.1 μM,21.3 ± 17.8 pg/mL
same,IFNβ,IFNβ; 1 μM,227.5 ± 62.4 pg/mL
same,IFNβ,IFNβ; 10 μM,540.2 ± 215.0 pg/mL
same,tumor volumes quantified by MRI,"MBT-2 tumor cells; days 20-21, 100, 200, 400 μg/mouse IVe Q7Dx3, also 400 μg/mouse with PD1 antibody (Groups 4 to 7), vs vehicle, BCG and PD1 antibody groups",much smaller tumor volumes
same,survival relative to vehicle treated animals,"MBT-2 tumor cells; intravesicular, Q7Dx3 (FIG. 8)",statistically significant survival benefit
same,activity at local sc tumors,GL261 mouse glioma cells,potent activity
same,curative systemic activity (treated animals),GL261 mouse glioma cells; into the sc tumor,5 of 8
same,formation of major metabolites,"[1]; dog hepatocytes, LC-MS/MS",No apparent metabolite
same,stability in incubations with hepatocytes,"[1]; dog, up to 240 minutes",stable
same,formation of major metabolites,"[2]; mouse hepatocytes, LC-MS/MS",No apparent metabolite
same,stability in incubations with hepatocytes,"[2]; mouse, up to 240 minutes",stable
same,formation of major metabolites,"[3]; monkey hepatocytes, LC-MS/MS",No apparent metabolite
same,stability in incubations with hepatocytes,"[3]; monkey, up to 240 minutes",stable
same,formation of major metabolites,"[4]; rat hepatocytes, LC-MS/MS",No apparent metabolite
same,stability in incubations with hepatocytes,"[4]; rat, up to 240 minutes",stable
same,formation of major metabolites,"hepatocytes of human; human hepatocytes, LC-MS/MS",No apparent metabolite
same,stability in incubations with hepatocytes,"hepatocytes of human; human, up to 240 minutes",stable
same,activity towards the local sc tumors,CT26 tumor cells [5],potent activity
same,curative systemic activity (treated animals),CT26 tumor cells [5]; into the sc tumor,9 of 10
same,"cure rate, treated tumors",CT26 tumor cells [6]; 0.6 mg/kg I.T. single dose,20%
same,"curative effects, untreated tumors",CT26 tumor cells [6]; 10 mg/kg I.T. single dose,80%
same,"animals cured, treated tumors","CT26 tumor cells [6]; 10 mg/kg I.T. single dose, end of study",100%
same,effect on untreated tumors,CT26 tumor cells [6]; all the lower doses (0.6 to 5 mg/kg) I.T. single dose,tumor growth inhibition activity
